# Laboratory results published in patent US4296126A, “3-Aryloxy-3-aryl-propaneamines and their method of use” (Roussel Uclaf, priority 1978, dated 1981).
# Counter-ions that a name gives are not always drawn.
# What was measured:
# dogs = experiment: Anorexigenic activity in dogs (method of Adams et al); type: in vivo, dog; settings: Canis lupus familiaris, po, compound given in lieu of first ball, balls offered every 10 minutes for 7 hours, activity grew with increasing doses, read-out: dose at which anorexigenic activity was shown (refusal of food balls)
# Description: The anorexigenic activity was studied in dogs using the method of Adams et al [J. Pharm. Sci., Vol. 53, (1964), p. 1405]. On the day of the test with the compound presumed to be anorexigenic, the individual daily ration of the animal was divided into about equal balls (10 to 20 g) which were offered to the dog every 10 minutes for 7 hours. Normally, the animal will regularly accept the successive balls when they are presented.
# [1] = Acute toxicity, LD50 in mice after intraperitoneal administration; settings: mouse, in vivo, ip, determined 48 hours after administration
# Description: The LD50 or lethal dose at which 50% of the animals died after intraperitoneal administration of the test compound to mice was determined 48 hours after the administration.
compound,measurement,setting,value
"CN(C)CCC(Oc1ccc([N+](=O)[O-])cc1)c1ccccc1 (centres unmarked) [Example 1, N,N-dimethyl-γ-(4-nitrophenoxy)-benzene-propanamine oxalate]",minimal effective dose,dogs,3 mg/kg
same,LD50 at 48 h,[1],~75 mg/kg
